Active and inactive are the calls of the source. The calls are words filed in the database; no cut-off is given here.
How the values were obtained:
Homo sapiens [1] = species on record: Homo sapiens; assay: Induction of adipogenesis in human bone marrow-derived mesenchymal stem cells assessed as increase in adiponectin production at 100 uM measured on day 5 in presence of IDX by ELISA; type: functional
Homo sapiens [2] = species on record: Homo sapiens; assay: Induction of adipogenesis in human bone marrow-derived mesenchymal stem cells assessed as increase in adiponectin production at 60 uM measured on day 5 in presence of IDX by ELISA; type: functional
[3] = target: T1, Glucocorticoid receptor (Homo sapiens) (UniProt P04150); assay: Displacement of fluormone GS1 from human GST-tagged glucocorticoid receptor-LBD at 30 uM by TR-FRET assay
T1 sequence (whole entry): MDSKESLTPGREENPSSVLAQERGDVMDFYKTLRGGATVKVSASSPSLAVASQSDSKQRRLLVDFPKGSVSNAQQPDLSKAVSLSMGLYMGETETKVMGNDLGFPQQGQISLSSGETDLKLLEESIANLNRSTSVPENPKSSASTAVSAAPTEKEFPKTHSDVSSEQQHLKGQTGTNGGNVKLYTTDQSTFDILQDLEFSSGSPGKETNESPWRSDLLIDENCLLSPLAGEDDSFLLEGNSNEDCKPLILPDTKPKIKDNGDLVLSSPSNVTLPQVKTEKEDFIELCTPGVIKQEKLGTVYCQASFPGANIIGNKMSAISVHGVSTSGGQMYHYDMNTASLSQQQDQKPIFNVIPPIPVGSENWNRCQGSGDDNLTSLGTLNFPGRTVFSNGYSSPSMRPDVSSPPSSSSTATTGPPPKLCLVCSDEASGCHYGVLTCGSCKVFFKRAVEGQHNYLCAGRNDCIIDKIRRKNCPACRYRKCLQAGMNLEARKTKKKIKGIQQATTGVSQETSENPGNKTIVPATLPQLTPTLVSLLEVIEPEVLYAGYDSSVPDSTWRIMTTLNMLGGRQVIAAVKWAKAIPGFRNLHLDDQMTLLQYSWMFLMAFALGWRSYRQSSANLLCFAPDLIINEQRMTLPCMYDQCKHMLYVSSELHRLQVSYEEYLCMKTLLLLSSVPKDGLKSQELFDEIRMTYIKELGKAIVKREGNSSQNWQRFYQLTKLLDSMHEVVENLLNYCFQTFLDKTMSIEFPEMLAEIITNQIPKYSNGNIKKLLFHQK

[4] = target: T2, Peroxisome proliferator-activated receptor alpha (Homo sapiens) (UniProt Q07869); assay: Displacement of fluormone Pan-PPAR Green from human GST-tagged PPARalpha-LBD at 30 uM by TR-FRET assay
T2 sequence (whole entry): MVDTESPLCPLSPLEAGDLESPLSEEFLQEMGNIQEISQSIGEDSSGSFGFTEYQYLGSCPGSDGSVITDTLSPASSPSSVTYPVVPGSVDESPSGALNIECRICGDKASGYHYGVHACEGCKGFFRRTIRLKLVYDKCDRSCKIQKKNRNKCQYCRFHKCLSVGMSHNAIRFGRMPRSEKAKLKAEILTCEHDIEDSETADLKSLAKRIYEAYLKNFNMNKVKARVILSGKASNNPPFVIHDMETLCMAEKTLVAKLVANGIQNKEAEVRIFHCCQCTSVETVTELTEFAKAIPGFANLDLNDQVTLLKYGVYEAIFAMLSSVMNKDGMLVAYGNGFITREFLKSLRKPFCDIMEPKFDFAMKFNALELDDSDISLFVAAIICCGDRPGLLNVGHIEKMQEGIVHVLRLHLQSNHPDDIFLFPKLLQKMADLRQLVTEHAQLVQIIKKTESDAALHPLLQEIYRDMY

[5] = target: T3, Peroxisome proliferator-activated receptor delta (Homo sapiens) (UniProt Q03181); assay: Displacement of fluormone Pan-PPAR Green from human GST-tagged PPARdelta-LBD at 30 uM by TR-FRET assay
T3 sequence (whole entry): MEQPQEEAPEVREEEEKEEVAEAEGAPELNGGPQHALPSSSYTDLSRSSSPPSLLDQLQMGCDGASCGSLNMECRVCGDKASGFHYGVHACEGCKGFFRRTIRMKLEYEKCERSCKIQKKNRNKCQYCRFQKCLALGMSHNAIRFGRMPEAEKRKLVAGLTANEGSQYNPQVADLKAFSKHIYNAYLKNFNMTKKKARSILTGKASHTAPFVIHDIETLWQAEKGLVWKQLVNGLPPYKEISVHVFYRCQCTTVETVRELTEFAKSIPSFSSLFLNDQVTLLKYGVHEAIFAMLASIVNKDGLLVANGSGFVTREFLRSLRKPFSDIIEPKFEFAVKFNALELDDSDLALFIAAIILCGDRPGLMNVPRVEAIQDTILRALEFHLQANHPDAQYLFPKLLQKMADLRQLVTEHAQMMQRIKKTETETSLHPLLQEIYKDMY

[6] = target: T4, Oxysterols receptor LXR-alpha (Homo sapiens) (UniProt Q13133); assay: Transactivation of recombinant human GST-tagged LXRalpha-LBD at 30 uM by TR-FRET assay
T4 sequence (whole entry): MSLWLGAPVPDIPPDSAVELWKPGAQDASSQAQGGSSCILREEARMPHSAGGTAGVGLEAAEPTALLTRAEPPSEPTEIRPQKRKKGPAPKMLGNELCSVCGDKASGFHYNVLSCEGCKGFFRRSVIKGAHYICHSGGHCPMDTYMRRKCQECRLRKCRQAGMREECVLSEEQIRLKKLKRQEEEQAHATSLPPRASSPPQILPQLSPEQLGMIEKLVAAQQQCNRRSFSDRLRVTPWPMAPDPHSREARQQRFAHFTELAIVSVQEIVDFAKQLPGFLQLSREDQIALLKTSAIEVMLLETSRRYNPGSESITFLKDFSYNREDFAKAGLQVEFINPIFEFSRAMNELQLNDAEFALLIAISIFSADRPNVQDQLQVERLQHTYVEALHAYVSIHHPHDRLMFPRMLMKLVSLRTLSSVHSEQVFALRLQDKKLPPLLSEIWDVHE

[7] = target: T5, Oxysterols receptor LXR-beta (Homo sapiens) (UniProt P55055); assay: Transactivation of LXRbeta (unknown origin) at 30 uM by TR-FRET assay
T5 sequence (whole entry): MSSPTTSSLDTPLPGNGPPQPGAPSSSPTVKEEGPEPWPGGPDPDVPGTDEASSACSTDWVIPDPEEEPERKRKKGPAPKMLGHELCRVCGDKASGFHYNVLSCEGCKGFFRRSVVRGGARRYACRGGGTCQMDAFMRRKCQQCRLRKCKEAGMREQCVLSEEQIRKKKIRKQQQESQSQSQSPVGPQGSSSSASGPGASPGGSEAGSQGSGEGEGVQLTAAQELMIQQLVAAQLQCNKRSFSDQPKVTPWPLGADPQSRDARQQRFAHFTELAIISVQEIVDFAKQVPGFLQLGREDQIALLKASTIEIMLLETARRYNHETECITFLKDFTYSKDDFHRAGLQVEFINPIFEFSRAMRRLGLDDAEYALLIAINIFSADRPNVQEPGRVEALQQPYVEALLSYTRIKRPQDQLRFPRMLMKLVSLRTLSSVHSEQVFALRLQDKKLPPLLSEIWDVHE

[8] = target: T6, Peroxisome proliferator-activated receptor gamma (Homo sapiens) (UniProt P37231); assay: Displacement of fluormone Pan-PPAR Green from human GST-tagged PPARgamma-LBD at 30 uM by TR-FRET assay relative to control
T6 sequence (whole entry): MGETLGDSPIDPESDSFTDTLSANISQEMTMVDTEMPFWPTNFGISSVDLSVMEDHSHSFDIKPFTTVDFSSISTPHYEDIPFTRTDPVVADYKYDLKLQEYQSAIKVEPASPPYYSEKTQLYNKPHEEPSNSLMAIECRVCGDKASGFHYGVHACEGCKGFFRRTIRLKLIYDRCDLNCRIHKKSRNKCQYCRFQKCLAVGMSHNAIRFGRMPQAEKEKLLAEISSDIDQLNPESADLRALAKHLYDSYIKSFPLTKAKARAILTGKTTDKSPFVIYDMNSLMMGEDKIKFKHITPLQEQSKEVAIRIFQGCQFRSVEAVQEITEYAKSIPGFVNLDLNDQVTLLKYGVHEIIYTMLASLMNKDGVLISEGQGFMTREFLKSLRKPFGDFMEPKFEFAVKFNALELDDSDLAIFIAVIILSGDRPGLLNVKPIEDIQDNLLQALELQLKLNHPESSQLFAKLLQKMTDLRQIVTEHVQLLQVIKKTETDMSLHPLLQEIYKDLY

Homo sapiens [9] = species on record: Homo sapiens; assay: Induction of adipogenesis in human bone marrow-derived mesenchymal stem cells assessed as increase in adiponectin production at 10 uM measured on day 5 in presence of IDX by ELISA; type: functional
Homo sapiens [10] = species on record: Homo sapiens; assay: Induction of adipogenesis in human bone marrow-derived mesenchymal stem cells assessed as increase in adiponectin production at 1 uM measured on day 5 in presence of IDX by ELISA; type: functional
[11] = target: T1, Glucocorticoid receptor (Homo sapiens); assay: Displacement of fluormone GS1 from human GST-tagged glucocorticoid receptor-LBD at 10 uM by TR-FRET assay
[12] = target: T2, Peroxisome proliferator-activated receptor alpha (Homo sapiens); assay: Displacement of fluormone Pan-PPAR Green from human GST-tagged PPARalpha-LBD at 10 uM by TR-FRET assay
Homo sapiens [13] = species on record: Homo sapiens; assay: Induction of adipogenesis in human bone marrow-derived mesenchymal stem cells assessed as increase in lipid droplet accumulation at 30 uM measured on day 5 in presence of IDX by ORO staining based spectrophotometric analysis; type: functional
[14] = target: T4, Oxysterols receptor LXR-alpha (Homo sapiens); assay: Transactivation of recombinant human GST-tagged LXRalpha-LBD at 10 uM by TR-FRET assay
[15] = target: T5, Oxysterols receptor LXR-beta (Homo sapiens); assay: Transactivation of LXRbeta (unknown origin) at 10 uM by TR-FRET assay
[16] = target: T6, Peroxisome proliferator-activated receptor gamma (Homo sapiens); assay: Partial agonist activity at PPARgamma in human bone marrow-derived mesenchymal stem cells assessed as inhibition of troglitazone-induced upregulation of adiponectin mRNA level at 3 to 10 uM measured on day 3 in presence of IDX by qRT-PCR analysis
[17] = target: T3, Peroxisome proliferator-activated receptor delta (Homo sapiens); assay: Displacement of fluormone Pan-PPAR Green from human GST-tagged PPARdelta-LBD at 10 uM by TR-FRET assay
[18] = target: T6, Peroxisome proliferator-activated receptor gamma (Homo sapiens); assay: Displacement of fluormone Pan-PPAR Green from human GST-tagged PPARgamma-LBD at 10 uM by TR-FRET assay relative to control
[19] = target: T7, Peroxisome proliferator-activated receptor gamma (Homo sapiens, UniProt P37231); assay: Displacement of fluormone Pan-PPAR Green from human GST-tagged PPARgamma-LBD by TR-FRET assay
T7 sequence (P37231 whole entry): T6 sequence (whole entry)

[20] = target: T6, Peroxisome proliferator-activated receptor gamma (Homo sapiens); assay: Partial agonist activity at PPARgamma in human bone marrow-derived mesenchymal stem cells assessed as inhibition of troglitazone-induced upregulation of FABP4 mRNA level at 3 to 10 uM measured on day 3 in presence of IDX by qRT-PCR analysis
Homo sapiens [21] = species on record: Homo sapiens; assay: Induction of adipogenesis in human bone marrow-derived mesenchymal stem cells assessed as increase in adiponectin production measured on day 5 in presence of IDX by ELISA; type: functional
[22] = target: T6, Peroxisome proliferator-activated receptor gamma (Homo sapiens); assay: Partial agonist activity at PPARgamma in human bone marrow-derived mesenchymal stem cells assessed as inhibition of troglitazone-induced increase in adiponectin level at 3 to 10 uM measured on day 5 in presence of IDX by ELISA
[23] = target: T6, Peroxisome proliferator-activated receptor gamma (Homo sapiens); assay: Partial agonist activity at PPARgamma in human bone marrow-derived mesenchymal stem cells assessed as inhibition of troglitazone-induced upregulation of PPARgamma mRNA level at 3 to 10 uM measured on day 3 in presence of IDX by qRT-PCR analysis

With `CC(=O)Oc1ccccc1C(=O)O` the Activity (Homo sapiens [1]) was “Active”.
With `c1cnc2c(C3NCCc4c3[nH]c3ccccc43)cccc2c1` (stereo not drawn) the Activity (Homo sapiens [2]) was “Active”, the Activity [3] was “inactive” and the Activity [4] was “inactive”. The Activity [5] was “inactive”, the Activity [6] was “inactive” and the Activity [7] was “inactive”. The Activity [8] was 24 to 36%.
In the case of `COc1ccc(Cl)cc1C(=O)NCCc1ccc(S(=O)(=O)NC(=O)NC2CCCCC2)cc1`, the Activity (Homo sapiens [9]) is reported as “Active”.
With `Cc1c(C)c2c(c(C)c1O)CCC(C)(COc1ccc(CC3SC(=O)NC3=O)cc1)O2` (stereo not drawn) the Activity (Homo sapiens [10]) was “Active”.
For `O=CN1CCc2c([nH]c3ccccc23)C1c1cccc2cccnc12` (stereo not drawn), the Activity [11] was “inactive”, the Activity [12] was “inactive” and the Activity (Homo sapiens [13]) was “Active”. For the same molecule, the Activity [14] was “inactive”, the Activity [15] was “inactive” and the inhibition [16] was “Active”. The Activity [17] was “inactive”, the Activity [18] was 58% and the Ki [19] was 7.1 µM. For the same molecule, the inhibition [20] was “Active”, the Activity (Homo sapiens [21]) was “Dose-dependent effect” and the inhibition [22] was “Active”. The inhibition [23] was “Active”.

Source: ChEMBL document CHEMBL4184241, “2-Formyl-komarovicine promotes adiponectin production in human mesenchymal stem cells through PPARγ partial agonism” (Bioorg Med Chem, 2018)
